Results from article PMC12051234, “NrdR in Streptococcus and Listeria spp.: DNA Helix Phase Dependence of the Bacterial Ribonucleotide Reductase Repressor” (Molecular Microbiology, 2025).

Biological target: T1, LmoNrdR (Listeria monocytogenes, UniProt Q8Y6W9)
T1 construct: gene nrdR; full-length, C-terminal His6 tag kept (pET30a(+), NdeI/XhoI), E. coli BL21(DE3); 19 kDa with tag
T1 sequence (Q8Y6W9 1-154): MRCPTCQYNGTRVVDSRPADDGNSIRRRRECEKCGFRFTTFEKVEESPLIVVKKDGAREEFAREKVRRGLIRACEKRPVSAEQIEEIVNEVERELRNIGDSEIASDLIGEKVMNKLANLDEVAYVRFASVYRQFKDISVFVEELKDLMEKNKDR
Assay: size exclusion chromatography, oligomer shift; MST of DNA binding
Details: 25 mM Bis-Tris propane pH 6.5, 5 mM MgCl2, 100 mM KCl, 4 C; ADP alone

Nc1ncnc2c1ncn2[C@@H]1O[C@H](COP(=O)(O)OP(=O)(O)O)[C@@H](O)[C@H]1O [ADP] was tested, and the “size exclusion chromatography, oligomer shift; MST of DNA binding” value was “LmoNrdR also eluted as a tetramer in the presence of only ADP”.
